Laboratory results from patent publication US20240316038A1, “APOL1 INHIBITORS AND METHODS OF USE” (Maze Therapeutics, Inc., priority 2021, published 2024).

How the values were obtained:
[1] = target: T1, APOL1 G2 (Homo sapiens, UniProt O14791, DEL388-389); test: APOL1 calcium transport inhibition assay (GCaMP6f calcium influx, FLIPR) in HEK T-REx/GCaMP6f/APOL1 G2 K6.3 cells; assay type: cell-based; conditions: inhibition of APOL1-mediated calcium influx; geometric mean of at least 2 assay runs, † = single assay run (technical duplicate)
T1 construct: expressed in transfected cells; host or cells: HEK293 T-REx clonal lines: HEK T-REx/GCaMP6f/APOL1 G2 K6.3 in A1, HEK293/T-REx APOL1 G2/clone #2 in A2
T1 sequence (O14791 with tags, fused parts or gaps DEL388-389): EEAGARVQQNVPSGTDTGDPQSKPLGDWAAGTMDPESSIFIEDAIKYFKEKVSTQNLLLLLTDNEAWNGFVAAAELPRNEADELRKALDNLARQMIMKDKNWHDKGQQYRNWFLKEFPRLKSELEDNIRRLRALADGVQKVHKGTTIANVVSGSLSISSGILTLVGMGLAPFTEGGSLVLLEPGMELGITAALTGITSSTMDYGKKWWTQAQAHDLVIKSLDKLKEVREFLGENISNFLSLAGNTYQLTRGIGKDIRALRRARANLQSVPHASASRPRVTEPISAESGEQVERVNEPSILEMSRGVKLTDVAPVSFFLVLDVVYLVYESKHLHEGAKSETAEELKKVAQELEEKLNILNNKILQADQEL
Description: A HEK293 clonal cell line was generated to stably express GCaMP6f, a genetically encoded calcium indicator, and inducibly express APOL1 G2 (HEK T-REx/GCaMP6f/APOL1 G2 K6.3). Cells were maintained in the following standard complete medium: DMEM with 4.5 g/L glucose and sodium pyruvate (BioWhittaker, Lonza, BE12-614F), supplemented with 10% FBS Performance Plus (Gibco, 16000044), 1% penicillin-streptomycin (BioWhittaker, DE17-602E), 2 mM ultraglutamine-1 (BioWhittaker cat. BE 17-605/U1), 50 μg/mL Zeocin (InvivoGen, ant-zn), 2.5 μg/mL Blasticidin (InvivoGen, ant-bl-5), and 25 μg/mL Hygromycin (InvivoGen, ant-hg). Standard propagation conditions consisted of plating 9×10^6, 4×10^6, 2×10^6 cells in a T225 flasks to be processed after 2, 3, or 4 days, respectively.
A source plate was generated containing 20 serially diluted compounds in DMSO (duplicate 8-point dose response). Next, 0.8 μL of compounds were transferred from the source plate to a destination plate prefilled with 79.2 μL of Ca^2+ free Tyrode's buffer (130 mM NaCl, 5 mM KCl, 1 mM MgCl2, 5 mM NaHCO3, 20 mM HEPES at pH 7.4). The destination plate was placed on a plate shaker (5 seconds at 2000 rpm) to mix. […] All transfer and mixing steps were conducted with an CyBi®-Well dispenser.
Cells were split by gently washing with DPBS (Euroclone, ECB4004L), followed by a 5-minute incubation (humidified, 37° C. with 5% CO2) with trypsin-EDTA solution (Euroclone, ECB3052D). Detached cells were diluted with standard complete medium without selective agents, counted, and plated in a 384 MTP microplate (GR4332CPL, Twin Helix) (10,000 cells/well in 25 μl/well) using a MATRIX WellMate dispenser. Plates were placed into a humidified incubator (37° C. with 5% CO2) overnight. The following day, 20 μL of doxycycline (Sigma, D9891) at 20 ng/mL in standard complete medium was added to cells with a CyBi @Drop dispenser to induce APOL1 G2 expression. After a 6-hour incubation (humidified, 37° C. with 5% CO2), cells were washed 3 times with Ca^2+ free Tyrode's Buffer (130 mM NaCl, 5 mM KCl, 1 mM MgCl2, 5 mM NaHCO3, 20 mM HEPES at pH 7.4) using a BIOTEK Microplate washer, such that 10 μL of buffer remained in each well after the final wash. Assay plates were then stored at room temperature for 10 minutes. Next, 10 μL of diluted compounds were transferred to the assay plate from the 2× compound plate using a CyBi®-Well dispenser. Compound incubation was then carried out at room temperature for 10 minutes. The assay plate was transferred to the […] and 20 μL of 10 mM Ca^2+ (final concentration=5 mM) Tyrode's buffer was injected.
Table B1 below summarizes the data from this experiment. Unless otherwise specified, AC50 and values are reported as the geometric mean of at least 2 assay runs on separate days. Each run represents the average of a technical replicate, where each compound was assayed twice in the same plate. A superscript † symbol indicates a value from the average of a technical replicate from a single assay run, where each compound was assayed twice in the same plate.
The AC50 values in Table B1 below reflect the compound's ability to prevent calcium influx by inhibiting APOL1. […] Compounds in Table B1 are referred to by the corresponding Compound Number in Table 1, which is also referred to in the synthetic examples. When one or more of the numbered compounds are identified by stereochemistry (for example, (R)- or (S)—), the specific stereoisomer for which data is provided in Table B1 may be identified by the elution order of such compound as described in the synthetic examples. To illustrate, Compound 2 is the first-eluting enantiomer of step 4 of Example 1 and Compound 3 is the second-eluting enantiomer of step 4 of Example 1. Further, by way of illustration, Compound 27 is the first-eluting enantiomeric mixture in step 4 of Example 7 and Compound 28 is the second-eluting enantiomeric mixture in step 4 of Example 7. […]

[2] = target: T1, APOL1 G2; test: Rescue of HEK293 cell death caused by overexpression of APOL1 (CellTiter-Glo luminescence), HEK293/T-REx APOL1 G2/clone #2; assay type: cell-based; conditions: reversal of cell death caused by overexpression of APOL1; geometric mean of at least 2 assay runs, † = single assay run (technical duplicate)
Description: A HEK293 clonal cell line overexpressing APOL1 G2 (HEK293/T-REx APOL1 G2/clone #2) was maintained in 1×DMEM-GlutaMax (Gibco, 10569-010) media with 10% tetracycline-free FBS (Takara Bio USA, 631101), 5 μg/mL Blasticidin (Gibco, A1113903), and 100 μg/mL Zeocin (Invitrogen, R25001) in T75 flasks. In preparation for the assay, this media was aspirated and 2 mL of prewarmed TrypLE Express (Gibco, 12605-010) was added to a flask to detach cells. The flask was then incubated (humidified, 37° C. with 5% CO2) for 3-5 minutes. Afterwards, 8 mL of prewarmed cell assay media (lx DMEM-GlutaMax media with 10% tetracycline-free FBS) was added to the trypsinized cells. The suspension was gently mixed, and cells were counted using a Countess Cell Counting Chamber (Invitrogen). The suspension was diluted using cell assay media to generate a working stock solution (166,667 cells/mL). Using a MultiDrop Combi (Thermo Electron Corp), 30 μL (final cell density=5,000 cells/well) of the working stock solution was dispensed into each well of white 384-well assay ready plates (Nunc™, 164610) containing 6 ng/mL doxycycline, to induce APOL1 expression, and compound. All compounds were plated in a duplicate 8-point dilution series that consisted of 3-fold stepwise dilutions (0.5% DMSO final). Assay plates were incubated (humidified, 37° C. with 5% CO2) for 17 hours. After the incubation, the plates were equilibrated at room temperature for 1 hour. Next, 15 μl of CellTiter-Glo® reagent (Promega, G7570) was added to each well using a MultiDrop Combi. Plates were placed on an orbital shaker (500 rpm) for 5 minutes to induce cell lysis and then incubated at room temperature for 10 minutes. Luminescence was measured on an Envision plate reader. Collaborative Drug Discovery software was utilized for graphing data. Plots were generated using a four parameter logistic curve fit.
Table B2 below provides the results from this experiment. Unless otherwise specified, EC50 values are reported as the geometric mean of at least 2 assay runs on separate days. Each run represents the average of a technical replicate, where each compound was assayed twice in the same plate. A superscript t symbol indicates a value from the average of a technical replicate from a single assay run, where each compound was assayed twice in the same plate. Compounds in Table B2 are referred to by the corresponding Compound Number in Table 1, which is also referred to in the synthetic examples. When one or more of the numbered compounds are identified by stereochemistry (for example, (R)- or (S)—), the specific stereoisomer for which data is provided in Table B2 may be identified by the elution order of such compound as described in the synthetic examples. To illustrate, Compound 2 is the first-eluting enantiomer of step 4 of Example 1 and Compound 3 is the second-eluting enantiomer of step 4 of Example 1. Further, by way of illustration, Compound 27 is the first-eluting enantiomeric mixture in step 4 of Example 7 and Compound 28 is the second-eluting enantiomeric mixture in step 4 of Example 7. Then, Compound 27 is separated into Compound 29 (the first-eluting enantiomer) and Compound 30 (the second-eluting enantiomer) in Example 8, and Compound 28 is separated into Compound 31 (the first-eluting enantiomer) and Compound 32 (the second-eluting enantiomer) in Example 8. Absolute stereochemistry of such compounds may be identified by methods known in the art.
Rescue EC50 values reported in Table B2 below represent the half-maximal effective concentration for reversal of cell death caused by overexpression of APOL1.

| SMILES | AC50 [1] | EC50 [2] |
| --- | --- | --- |
| COC(CN1CCC[C@@H](COc2ccc(S(C)(=O)=O)cc2)C1)c1cccc(Cl)c1 (single isomer, unassigned) [Compound 25, (R)-1-((R)-2-(3-chlorophenyl)-2-methoxyethyl)-3-((4-(methylsulfonyl)phenoxy)methyl)piperidine or (R)-1-((S)-2-(3-chlorophenyl)-2-methoxyethyl)-3-((4-(methylsulfonyl)phenoxy)methyl)piperidine] | 469 nM | 1010 nM |
| COC(CN1CCC[C@@H](COc2ccc(S(C)(=O)=O)cc2)C1)c1cccc(Cl)c1 (single isomer, unassigned) [Compound 26, (R)-1-((S)-2-(3-chlorophenyl)-2-methoxyethyl)-3-((4-(methylsulfonyl)phenoxy)methyl)piperidine or (R)-1-((R)-2-(3-chlorophenyl)-2-methoxyethyl)-3-((4-(methylsulfonyl)phenoxy)methyl)piperidine] | 1540 nM | 2240 nM |
| CS(=O)(=O)c1ccc(OCC2CN(CCc3cccc(Cl)c3)CCC2O)cc1 (single isomer, unassigned) [Compound 29, (3S,4R) or (3R,4R) or (3S,4S) or (3R,4S)-1-(3-chlorophenethyl)-3-((4-(methylsulfonyl)phenoxy)methyl)piperidin-4-ol] | 1980 nM | > 12200 nM |
| CS(=O)(=O)c1ccc(OCC2CN(CCc3cccc(Cl)c3)CCC2O)cc1 (single isomer, unassigned) [Compound 30, (3R,4R) or (3S,4S) or (3R,4S) or (3S,4R)-1-(3-chlorophenethyl)-3-((4-(methylsulfonyl)phenoxy)methyl)piperidin-4-ol] | 864 nM | 2410 nM |
| CS(=O)(=O)c1ccc(OCC2CN(CCc3cccc(Cl)c3)CCC2O)cc1 (single isomer, unassigned) [Compound 31, (3R,4R) or (3S,4S) or (3R,4S) or (3S,4R)-1-(3-chlorophen-ethyl)-3-((4-(methylsulf-onyl)phenoxy)methyl) piperidin-4-ol] | 1020 nM | > 7890 nM |

The next lines start with results.

| AC50 [1] | SMILES | EC50 [2] |
| --- | --- | --- |
| 731 nM | CS(=O)(=O)c1ccc(OCC2CN(CCc3cccc(Cl)c3)CCC2O)cc1 (single isomer, unassigned) [Compound 32, (3S,4S) or (3R,4S) or (3S,4R) or (3R,4R)-1-(3-chlorophen-ethyl)-3-((4-(methylsulf-onyl)phenoxy)methyl) piperidin-4-ol] | 5770 nM |
| 10800 nM | COC1CCN(CCc2cccc(Cl)c2)CC1COc1ccc(S(C)(=O)=O)cc1 (single isomer, unassigned) [Compound 33, rac-trans or cis-1-(3-chlorophenethyl)-4-methoxy-3-((4-(methylsulfonyl)phenoxy)methyl)piperidine] | > 8670 nM |
| 991 nM | COC1CCN(CCc2cccc(Cl)c2)CC1COc1ccc(S(C)(=O)=O)cc1 (single isomer, unassigned) [Compound 34, rac-cis or trans-1-(3-chlorophenethyl)-4-methoxy-3-((4-(methylsulfonyl)phenoxy)methyl)piperidine] | 779 nM |
| 3780 nM | COC1CCN(CCc2cccc(Cl)c2)CC1COc1ccc(S(C)(=O)=O)cc1 (single isomer, unassigned) [Compound 35, (3S,4R) or (3R,4R) or (3S,4S) or (3R,4S)-1-(3-chlorophenethyl)-4-methoxy-3-((4-(methylsulfonyl)phenoxy)methyl)piperidine] | 6130 nM |
| 14200 nM | COC1CCN(CCc2cccc(Cl)c2)CC1COc1ccc(S(C)(=O)=O)cc1 (single isomer, unassigned) [Compound 36, (3R,4R) or (3S,4S) or (3R,4S) or (3S,4R)-1-(3-chlorophenethyl)-4-methoxy-3-((4-(methylsulfonyl)phenoxy)methyl)piperidine] | > 30000 nM |
